Source: patent US11766628B2, “Purification and extraction of cannabinoids” (CHEMTOR, LP, priority 2020, dated 2023)

Assay: Partition of cannabinoids between degummed cannabis oil miscella and water/ethanol/base extraction solvent in a fiber conduit contactor
Assay type: physicochemical
Design: scale not given here
Source text: Degummed miscella from Example 1A were used to investigate the extraction of acid cannabinoids into a water/ethanol solvent using a fiber conduit contactor. Bases tested included sodium bicarbonate (NaHCO3), sodium carbonate (Na2CO3), potassium bicarbonate (KHCO3), and potassium carbonate (K2CO3). The hardness difference between a sodium and potassium radii (smaller radii are harder, larger radii are softer) creates a variation in the property of the resulting soaps. Sodium salts give a so-called “harder” soap that is more likely to be rejected from the crude miscella. Switching from bicarbonate to carbonate has two effects: (1) higher ion count in solution, thereby increasing ionic strength/polarity; and (2) increasing the pH by approximately 1 pH unit for the same wt % solution. This increased polarity can be used to enforce selectivity of the desired compounds.
As shown in the results below, there are multiple options for extracting specific combinations of cannabinoids. The bicarbonate bases gave a preference to acid cannabinoids, whereas the stronger carbonate bases were able to increase the total mass transfer. These parameters can be used to control the outflow product streams. The partition coefficients for various combinations are summarized in Table 3 and can be used to determine the optimal extraction solvent for a target compound or goal.
In Table 3 above, the Examples are ordered by decreasing polarity from top to bottom. A lower number specifies a preference for extraction and a high number specifies a preference to remain in the neutral oil. Blank squares are where coefficients could not be calculated.

[1] = Base K2CO3, H2O/EtOH/Base (wt %) 68.3/29.1/2.5
[2] = Base K2CO3, H2O/EtOH/Base (wt %) 77.9/19.5/2.6
[3] = Base K2CO3, H2O/EtOH/Base (wt %) 82.8/14.7/2.5
[4] = Base K2CO3, H2O/EtOH/Base (wt %) 87.5/10/2.5
[5] = Base Na2CO3, H2O/EtOH/Base (wt %) 68.4/29.1/2.5
[6] = Base Na2CO3, H2O/EtOH/Base (wt %) 73.2/24.2/2.6
[7] = Base Na2CO3, H2O/EtOH/Base (wt %) 77.6/19.9/2.5
[8] = Base Na2CO3, H2O/EtOH/Base (wt %) 82.9/14.5/2.6
[9] = Base Na2CO3, H2O/EtOH/Base (wt %) 87.8/9.7/2.6
[10] = Base NaHCO3, H2O/EtOH/Base (wt %) 67.8/29.7/2.4, lower = preference for extraction, higher = remains in neutral oil
[11] = Base NaHCO3, H2O/EtOH/Base (wt %) 72.9/24.6/2.5
[12] = Base NaHCO3, H2O/EtOH/Base (wt %) 77.9/19.6/2.5
[13] = Base NaHCO3, H2O/EtOH/Base (wt %) 81.2/16.3/2.5
[14] = Base NaHCO3, H2O/EtOH/Base (wt %) 879./9.7/2.4
[15] = Base KHCO3, H2O/EtOH/Base (wt %) 68.1/29.4/2.6
[16] = Base KHCO3, H2O/EtOH/Base (wt %) 73.1/24.3/2.6
[17] = Base K2CO3, H2O/EtOH/Base (wt %) 73.0/24.5/2.5
[18] = Base KHCO3, H2O/EtOH/Base (wt %) 78.0/19.5/2.5
[19] = Base KHCO3, H2O/EtOH/Base (wt %) 82.7/14.8/2.5
[20] = Base NaHCO3, H2O/EtOH/Base (wt %) 68.4/29.5/2.0
[21] = Base NaHCO3, H2O/EtOH/Base (wt %) 69.0/29.6/1.5
[22] = Base NaHCO3, H2O/EtOH/Base (wt %) 69.9/29.9/0.25

SMILES | Partition coefficient [1] | Partition coefficient [2] | Partition coefficient [3] | Partition coefficient [4] | Partition coefficient [5] | Partition coefficient [6] | Partition coefficient [7] | Partition coefficient [8] | Partition coefficient [9] | Partition coefficient [10] | Partition coefficient [11] | Partition coefficient [12] | Partition coefficient [13] | Partition coefficient [14] | Partition coefficient [15] | Partition coefficient [16] | Partition coefficient [18] | Partition coefficient [19] | other results
CCCCCc1cc(O)c2c(c1)OC(C)(CCC=C(C)C)C=C2 (stereo not shown) [CBC, cannabichromene] | 0.6 | 0.23 | 0.23 | 0.16 | −0.2 | −0.16 | −0.21 | −0.14 | 0.22 | 0.54 | 0.83 | 1.42 | 1.33 | 1.21 | – | – | – | – | –
CCCCCc1cc2c(c(O)c1C(=O)O)C=CC(C)(CCC=C(C)C)O2 (stereo not shown) [CBCA, cannabichromenic acid] | 0.22 | −0.29 | −0.25 | −0.2 | 0.93 | 1.09 | 1.08 | 1.15 | 1.48 | 0.57 | 1.14 | – | 1.24 | 1.17 | 2.09 | 2.59 | – | – | –
C=C(C)[C@@H]1CCC(C)=C[C@H]1c1c(O)cc(CCCCC)cc1O [CBD, cannabidiol, reference compound] | 0.55 | 0.19 | 0.19 | 0.1 | −0.87 | −0.86 | −0.94 | −0.9 | −0.55 | 0.48 | 0.78 | 1.29 | 1.25 | 1.14 | 0.6 | 1.06 | 1.59 | 1.43 | Partition coefficient [17]: 0.87; Partition coefficient [20]: 1.4; Partition coefficient [21]: 1.86
C=C(C)[C@@H]1CCC(C)=C[C@H]1c1c(O)cc(CCCCC)c(C(=O)O)c1O [CBDA, cannabidiolic acid] | 0.04 | −0.16 | −0.08 | 0 | −2.37 | −2.22 | −2.22 | −2.11 | −1.75 | 0.43 | 0.68 | 1.09 | 1.05 | 0.96 | −1.02 | −0.59 | 0.04 | 0.21 | Partition coefficient [17]: 0.45; Partition coefficient (Base KHCO3, H2O/EtOH/Base (wt %) 86.3/11.3/2.5): 0.19; Partition coefficient [20]: −0.19; Partition coefficient [21]: 0.1; Partition coefficient (Base NaHCO3, H2O/EtOH/Base (wt %) 69.2/29.8/1.0): 0.22; Partition coefficient [22]: 0.38
CCCCCc1cc(O)c(C/C=C(\C)CCC=C(C)C)c(O)c1 [CBG, cannabigerol] | – | 0.01 | 0.05 | −0.07 | 1.58 | 1.6 | 1.53 | 1.59 | 1.91 | 0.46 | 0.76 | – | – | – | – | – | – | – | Partition coefficient [22]: 2.62
CCCCCc1cc(O)c(C/C=C(\C)CCC=C(C)C)c(O)c1C(=O)O [CBGA, cannabigerolic acid] | 0.15 | −0.19 | −0.15 | −0.1 | −0.57 | −0.47 | −0.5 | −0.44 | −0.14 | 0.46 | 0.76 | 1.2 | 1.19 | 1.1 | 0.33 | 0.72 | 1.4 | 1.61 | –
CCCCCc1cc(O)c2c(c1)OC(C)(C)[C@@H]1CCC(C)=C[C@@H]21 [THC, tetrahydrocannabinol, reference compound] | 0.59 | 0.1 | 0.09 | 0.13 | 0.22 | 0.2 | 0.1 | 0.13 | 0.47 | 0.77 | 1.03 | 1.43 | 1.28 | 1.17 | – | – | – | – | –
CCCCCc1cc2c(c(O)c1C(=O)O)[C@@H]1C=C(C)CC[C@H]1C(C)(C)O2 [THCA, tetrahydrocannabinolic acid] | 0.28 | −0.09 | −0.05 | 0.15 | −0.18 | −0.02 | −0.02 | 0.06 | 0.41 | 0.91 | 1 | 1.33 | 1.16 | 1.12 | 1.26 | 1.76 | – | – | –
